From patent publication US20240132449A1, “HETEROCYCLIC COMPOUNDS AND METHODS OF USE THEREOF” (1cBio, Inc., priority 2022, published 2024)
Structures can show the parent of a compound that is named as a salt.

Experiments:
PARP1 = PARP1 (Homo sapiens, UniProt P09874); experiment: PARP1 fluorescence polarization binding assay; conditions: binding IC50, GST-tagged PARP1 20 nM, PARPi-FL 3 nM
Protocol: Compounds of the present disclosure were tested in a PARP1 fluorescence polarization binding assay at Pharmaron (Beijing, P.R.China). In this biochemical assay, binding of test compound to recombinant human PARP1 reduces the amount of binding of a fluorescent probe, and consequently reduces the detected level of fluorescence polarization. Test compound stock solutions were prepared in DMSO and then serially diluted into 10 concentrations by 3-fold dilution in a 384-well plate using a TECAN EVO200. 60 nL of each dilution was transferred to the plate using an Echo550 (Labcyte), and then 10 μL 40 nM GST-tagged PARP1 (BPS Bioscience, Cat #80501), diluted in assay buffer (50 mM Tris pH 8.0, 0.001% Triton X-100, 10 mM MgCl2, 150 mM NaCl), was added to the plate. After a centrifugation at 1000 rpm for 1 min, the assay plate was incubated for 30 min at RT. 10 μL 6 nM PARPi-FL (TOCRIS, Cat #6461), diluted using assay buffer, was then added to the plate. The final concentrations of PARP1 and PARPi-FL were 20 nM and 3 nM, respectively, in a total volume of 20 μL. After a centrifugation at 1000 rpm for 1 min, the assay plate was incubated for 4 h at RT. Samples in each well were read using an Envision instrument (Perkin-Elmer; Ex=480 nm Em=FITC FP-P pol 535 nm & FITC FP-S pol 535 nm). Percent inhibition was calculated from mP values using Inhibition (%)=[1−(mPc−mPL)/(mPH−mPL)]×100%, where mPc, mPL, and mPH are the mP values of test compound, Low controls, and High controls, respectively. Binding IC50 values were calculated using XLFit (equation 201: y=A+((B−A)/(1+((x/C)^D))), where A=bottom, B=top, C=IC50, and D=slope) with a floating top and bottom for curves. Binding IC50 values are shown in Table A and are presented in ranges, in which “+++”<100 nM, 100 nM≤“++”<3000 nM, and “+”≥3000 nM.

recombinant human PARP2 = recombinant human PARP2 (Homo sapiens, UniProt Q9UGN5); experiment: PARP2 fluorescence polarization binding assay; conditions: for inhibition at 10 µM: read-out: PARP2 % inh at 10 μM; for IC50: binding IC50, GST-tagged PARP2 20 nM, PARPi-FL 3 nM
Protocol: Compounds of the present disclosure were tested in a PARP2 fluorescence polarization binding assay at Pharmaron (Beijing, P.R. China). In this biochemical assay, binding of test compound to recombinant human PARP2 reduces the amount of binding of a fluorescent probe, and consequently reduces the detected level of fluorescence polarization. Test compound stock solutions were prepared in DMSO and then serially diluted into 10 concentrations by 3-fold dilution in a 384-well plate using a TECAN EVO200. Alternatively, a single concentration was prepared. 60 nL of each dilution was transferred to the plate using an Echo550 (Labcyte), and then 10 μL 40 nM GST-tagged PARP2 (BPS Bioscience, Cat #80502), diluted in assay buffer (50 mM Tris pH 8.0, 0.001% Triton X-100, 10 mM MgCl2, 150 mM NaCl), was added to the plate. After a centrifugation at 1000 rpm for 1 min, the assay plate was incubated for 30 min at RT. 10 μL 6 nM PARPi-FL (TOCRIS, Cat #6461), diluted using assay buffer, was then added to the plate. […] After a centrifugation at 1000 rpm for 1 min, the assay plate was incubated for 4 h at RT. Samples in each well were read using an Envision instrument (Perkin-Elmer; Ex=480 nm Em=FITC FP-P pol 535 nm & FITC FP-S pol 535 nm). […] Binding IC50 values were calculated using XLFit (equation 201: […])^D))), where A=bottom, B=top, C=IC50, and D=slope) with a floating top and bottom for curves.

[1] = system: DLD-1 BRCA2(−/−) colorectal adenocarcinoma cells; experiment: Cell viability assay (Cell Titer-Glo), DLD-1 BRCA2(−/−); assay type: cell-based; conditions: Homo sapiens, DLD-1, 168 h; 7 days incubation, 200 cells/well
Protocol: (§1) Compounds of the present disclosure were tested for their effects on the viability of cancer cells. DLD-1 wild-type and DLD-1 BRCA2(−/−) colorectal adenocarcinoma cells, an isogenic pair of cell lines differing in the presence and absence, respectively, of both BRCA2 alleles, were used. The cells were harvested during the logarithmic growth period, counted, and seeded at 50 cells/well for DLD-1 wild-type and 200 cells/well for DLD-1 BRCA2(−/−) in a 384-well cell culture plate. After seeding, cells were incubated at 37° C., 5% CO2 overnight. Cells were treated with serially diluted test compounds at 10 concentrations (e.g., from 1.5 nM-30 μM) for generation of dose response curves, or at a single concentration. The plate was further incubated for another 7 days in a humidified incubator at 37° C. and 5% CO2. Cell viability was assessed by luminescence measurement after addition of Cell Titer-Glo reagent (Promega, Madison, Wis.) according to the manufacturer's instructions. Cell viability IC50 values were calculated using XLFit, equation 201: y=A+((B−A)/(1+((x/C)^D))), where A=bottom, B=top, C=IC50, and D=slope. IC50 values are shown in Table B and are presented in ranges, in which “+++”<300 nM, 300 nM≤“++”<3000 nM, and “+”≥3000 nM. Values for percent inhibition at 10 μM are also shown in Table B and are presented in ranges, in which “***”≥67%, 33%≤“**”<67%, and “*”<33%. Effects of the test compounds on the viability of other cell lines such as MDA-MB-436, MDA-MB-231, SUM149PT, HCC1395, and UWB1.289 are determined in an analogous method.

[2] = system: DLD-1 wild-type colorectal adenocarcinoma cells; experiment: Cell viability assay (Cell Titer-Glo), DLD-1 wild-type; assay type: cell-based; conditions: Homo sapiens, DLD-1, 168 h, 7 days incubation; for inhibition at 10 µM: read-out: DLD-1 wild-type % inh at 10 μM; for IC50: 50 cells/well
Protocol: as §1

Chain of PARP1 (P09874 whole entry): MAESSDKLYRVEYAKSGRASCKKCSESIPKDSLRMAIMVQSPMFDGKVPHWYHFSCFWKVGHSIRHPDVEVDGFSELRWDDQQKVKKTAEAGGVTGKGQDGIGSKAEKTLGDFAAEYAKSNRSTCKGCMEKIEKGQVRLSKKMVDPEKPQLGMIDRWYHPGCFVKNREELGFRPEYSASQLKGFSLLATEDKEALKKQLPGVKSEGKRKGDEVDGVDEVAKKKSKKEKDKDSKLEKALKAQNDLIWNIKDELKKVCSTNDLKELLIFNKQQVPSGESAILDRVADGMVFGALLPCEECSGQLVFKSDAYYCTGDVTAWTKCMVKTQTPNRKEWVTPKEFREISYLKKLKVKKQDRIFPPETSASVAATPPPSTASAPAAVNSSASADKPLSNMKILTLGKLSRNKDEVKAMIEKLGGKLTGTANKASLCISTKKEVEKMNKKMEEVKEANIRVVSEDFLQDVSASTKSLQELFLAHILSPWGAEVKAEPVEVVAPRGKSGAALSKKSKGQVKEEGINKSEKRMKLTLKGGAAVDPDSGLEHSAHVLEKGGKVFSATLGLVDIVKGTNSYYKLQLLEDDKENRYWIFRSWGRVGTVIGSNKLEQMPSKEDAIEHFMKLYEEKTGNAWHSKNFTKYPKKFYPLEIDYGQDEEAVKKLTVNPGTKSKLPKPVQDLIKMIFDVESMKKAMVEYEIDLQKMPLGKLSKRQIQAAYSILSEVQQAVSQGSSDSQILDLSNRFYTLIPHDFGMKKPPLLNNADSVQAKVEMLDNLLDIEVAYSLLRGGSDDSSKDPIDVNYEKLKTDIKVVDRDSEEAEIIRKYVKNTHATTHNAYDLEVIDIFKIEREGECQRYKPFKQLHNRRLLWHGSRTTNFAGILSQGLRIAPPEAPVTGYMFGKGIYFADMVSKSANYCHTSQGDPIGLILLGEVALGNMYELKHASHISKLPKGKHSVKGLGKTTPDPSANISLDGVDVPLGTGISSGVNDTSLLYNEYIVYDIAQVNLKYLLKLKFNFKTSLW
Chain of recombinant human PARP2 (Q9UGN5 whole entry): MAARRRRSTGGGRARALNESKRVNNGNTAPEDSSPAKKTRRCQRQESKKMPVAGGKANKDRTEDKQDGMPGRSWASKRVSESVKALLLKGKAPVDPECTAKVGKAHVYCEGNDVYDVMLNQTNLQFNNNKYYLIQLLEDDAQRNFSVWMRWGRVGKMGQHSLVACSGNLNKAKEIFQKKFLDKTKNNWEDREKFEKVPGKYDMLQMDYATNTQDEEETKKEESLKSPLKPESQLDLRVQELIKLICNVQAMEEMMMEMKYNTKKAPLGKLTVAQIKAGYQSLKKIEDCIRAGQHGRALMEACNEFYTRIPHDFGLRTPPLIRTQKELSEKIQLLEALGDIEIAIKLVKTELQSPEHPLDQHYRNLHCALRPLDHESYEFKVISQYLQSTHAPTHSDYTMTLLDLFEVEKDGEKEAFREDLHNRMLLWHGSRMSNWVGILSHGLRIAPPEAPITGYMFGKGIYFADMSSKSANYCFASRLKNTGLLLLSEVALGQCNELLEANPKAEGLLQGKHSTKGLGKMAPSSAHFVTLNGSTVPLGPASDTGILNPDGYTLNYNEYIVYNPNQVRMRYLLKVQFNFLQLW

Row | SMILES | IC50 (PARP1) [µM] | inhibition at 10 µM (recombinant human PARP2) [%] | IC50 (recombinant human PARP2) [µM] | IC50 [2] [µM] | IC50 [1] [µM] | inhibition at 10 µM [2] [%]
1 | CNC(=O)c1ccc(N2CCN(Cc3ccc4c(=O)[nH]c(=O)[nH]c4c3)CC2)cn1 [Compound 1, 5-(4-((2,4-dioxo-1,2,3,4-tetrahydroquinazolin-7-yl)methyl)piperazin-1-yl)-N-methylpicolinamide formate] | 0.1 to 3 | 33 to 67 | – | – | – | –
2 | CCn1c(=O)[nH]c2cc(CN3CCN(c4ccc(C(=O)NC)nc4)CC3)ccc2c1=S [Compound 40, 5-(4-((3-ethyl-2-oxo-4-thioxo-1,2,3,4-tetrahydroquinazolin-7-yl)methyl)piperazin-1-yl)-N-methylpicolinamide formate] | < 0.1 | 33 to 67 | > 3 | > 3 | 0.3 to 3 | < 33
3 | CCn1c(=O)[nH]c2sc(CN3CCN(c4ccc(C(=O)NC)nc4)CC3)cc2c1=O [Compound 60, 5-(4-((3-ethyl-2,4-dioxo-1,2,3,4-tetrahydrothieno[2,3-d]pyrimidin-6-yl)methyl)piperazin-1-yl)-N-methylpicolinamide formate] | 0.1 to 3 | 33 to 67 | – | – | > 3 | < 33
4 | CCn1c(=O)[nH]c2cc(CN3CCN(c4ccc(C(=O)NC)nc4)CC3)sc2c1=O [Compound 86, 5-(4-((3-ethyl-2,4-dioxo-1,2,3,4-tetrahydrothieno[3,2-d]pyrimidin-6-yl)methyl)piperazin-1-yl)-N-methylpicolinamide formate] | < 0.1 | 33 to 67 | > 3 | – | < 0.3 | < 33
5 | CCn1c(=O)[nH]c2cc(CN3CCN(c4ccc(C(=O)NC#N)nc4C)CC3)sc2c1=O [Compound 313, N-cyano-5-(4-((3-ethyl-2,4-dioxo-1,2,3,4-tetrahydrothieno[3,2-d]pyrimidin-6-yl)methyl)piperazin-1-yl)-6-methylpicolinamide, ammonia salt] | 0.1 to 3 | 33 to 67 | > 3 | – | – | –
6 | CCn1c(=O)[nH]c2cc(CN3CC(Oc4ccc(C(=O)NC)nc4C)C3)sc2c1=O [Compound 328] | 0.1 to 3 | – | – | – | – | –
7 | CCn1c(=O)[nH]c2cc(CN3CCN(c4ccc(C(=O)N5CCCC5)nc4C)CC3)sc2c1=O [Compound 526, 3-ethyl-6-[(4-{2-methyl-6-[(pyrrolidin-1-yl)carbonyl]pyridin-3-yl}piperazin-1-yl)methyl]-1H-thieno[3,2-d]pyrimidine-2,4-dione] | > 3 | – | – | – | – | –
8 | CCn1c(=O)[nH]c2cc(CN3CCN(c4ccc(NC(C)=O)nc4C)CC3)sc2c1=O [Compound 528, N-(5-(4-((3-ethyl-2,4-dioxo-1,2,3,4-tetrahydrothieno[3,2-d]pyrimidin-6-yl)methyl)piperazin-1-yl)-6-methylpyridin-2-yl)acetamide] | < 0.1 | – | – | – | – | –
9 | CCn1c(=O)[nH]c2cc(CN3CCN(c4ccc(CNC)nc4C)CC3)sc2c1=O [Compound 529, 3-ethyl-6-((4-(2-methyl-6-((methylamino)methyl)pyridin-3-yl)piperazin-1-yl)methyl)thieno[3,2-d]pyrimidine-2,4(1H,3H)-dione] | > 3 | – | – | – | – | –
10 | CCn1c(=O)[nH]c2sc(CN3CCN(c4ccc(C(=O)NC)nc4F)CC3)cc2c1=O [Compound 530, 5-(4-((3-ethyl-2,4-dioxo-1,2,3,4-tetrahydrothieno[2,3-d]pyrimidin-6-yl)methyl)piperazin-1-yl)-6-fluoro-N-methylpicolinamide bis formate] | < 0.1 | – | – | – | – | –
11 | CCn1c(=O)[nH]c2cc(CN3CCN(c4ccc(C#N)cn4)CC3)sc2c1=O [Compound 531] | < 0.1 | – | – | – | – | –

Second part, led by results:

Row | IC50 (PARP1) [µM] | inhibition at 10 µM (recombinant human PARP2) [%] | IC50 (recombinant human PARP2) [µM] | IC50 [2] [µM] | SMILES | IC50 [1] [µM] | inhibition at 10 µM [2] [%]
12 | < 0.1 | 33 to 67 | > 3 | > 3 | CNC(=O)c1ccc(N2CCN(Cc3ccc4c(=O)n(C)c(=O)[nH]c4c3)CC2)cn1 [Compound 2] | 0.3 to 3 | < 33
13 | < 0.1 | 33 to 67 | > 3 | > 3 | CNC(=O)c1ccc(N2CCN(Cc3ccc4c(=O)n(C(C)C)c(=O)[nH]c4c3)CC2)cn1 [Compound 4, 5-(4-((3-isopropyl-2,4-dioxo-1,2,3,4-tetrahydroquinazolin-7-yl)methyl)piperazin-1-yl)-N-methylpicolinamide] | > 3 | 33 to 67
14 | < 0.1 | 33 to 67 | > 3 | > 3 | CNC(=O)c1ccc(N2CCN(Cc3ccc4c(=O)n(C5CC5)c(=O)[nH]c4c3)CC2)cn1 [Compound 5, 5-(4-((3-cyclopropyl-2,4-dioxo-1,2,3,4-tetrahydroquinazolin-7-yl)methyl)piperazin-1-yl)-N-methylpicolinamide] | > 3 | < 33
15 | < 0.1 | 33 to 67 | > 3 | – | CCn1c(=O)[nH]c2cc(C(=O)N3CCN(c4ccc(C(=O)NC)nc4)CC3)ccc2c1=O [Compound 130, 5-(4-(3-ethyl-2,4-dioxo-1,2,3,4-tetrahydroquinazoline-7-carbonyl)piperazin-1-yl)-N-methylpicolinamide] | – | –
16 | < 0.1 | – | – | – | CCn1c(=O)[nH]c2sc(CN3CCN(c4ccc(C(=O)NC)nc4C)CC3)cc2c1=O [Compound 186] | – | –
17 | < 0.1 | – | – | – | CCn1c(=O)[nH]c2cc(CN3CCN(c4ccc(C(=O)NC)nc4C)CC3=O)sc2c1=O [Compound 305, 5-(4-((3-ethyl-2,4-dioxo-1,2,3,4-tetrahydrothieno[3,2-d]pyrimidin-6-yl)methyl)-3-oxopiperazin-1-yl)-N,6-dimethylpicolinamide] | – | –
18 | < 0.1 | – | – | – | CCn1c(=O)[nH]c2cc(CN3CCN(c4ccc(-n5cccn5)nc4C)CC3)sc2c1=O [Compound 306, 3-ethyl-6-({4-[2-methyl-6-(pyrazol-1-yl)pyridin-3-yl]piperazin-1-yl}methyl)-1H-thieno[3,2-d]pyrimidine-2,4-dione] | – | –
19 | < 0.1 | – | – | – | CCn1c(=O)[nH]c2cc(CN3CCN(c4ccc(-c5ncc[nH]5)nc4C)CC3)sc2c1=O [Compound 357, 64(4-(6-(1H-imidazol-2-yl)-2-methylpyridin-3-yl)piperazin-1-yl) methyl)-3-ethylthieno[3,2-d]pyrimidine-2,4(1H,3H)-dione formate] | – | –
